Patent US6204220A, “Substituted 2-oxo-3-alkynoic acids and methods of use thereof” (Rutgers, The State University of New Jersey, priority 1999, dated 2001)
Entries after “also recorded” stand apart in the source; their conditions may differ. Where two headings read alike, the source gives them in different places.

Columns and labels:
PDHc [1] = molecular target: T1, PDHc (Escherichia coli, UniProt P0AFG8); assay: Steady-state kinetics of PDHc, Km / [S]0.5 for pyruvate; format: biochemical; parameters: made in house; host or cells: E. coli JRG1342 (PDHc null), Ptac plasmid pGS523; details: 3-lip PDHc; 0.22 mM without reagent
Description: (§1) Activity and related measurements on PDHc. The overall enzymatic reaction of the PDH complex was assayed using a Varian DMS 300 spectrophotometer or the Cobas Bio (Roche Diagnostics, Somerville, N.J.) automated centrifugal analyzer, monitoring the pyruvate-dependent reduction of NAD^+ at 340 nm. The reaction medium contained in 1 mL (DMS 300) or 0.25 mL (Cobas-Bio) test volume: 0.1 M Tris-HCl, pH 8.0; 1 mM MgCl2; 2 mM sodium pyruvate; 2.5 mM NAD^+; 0.052-0.2 mM coenzyme A; 0.2 mM ThDP; and 2.6 mM DTT at 27° C. The reaction was initiated either by adding enzyme to a mixture of all other components, or by adding CoA.
The Michaelis-Menten constants (Km) for native PDHc and PDHc treated with 2-oxo-3-butynoic acid and 2-oxo-3-heptynoic acid were obtained by fitting steady-state rates at different pyruvate concentrations to the Hill equation and the logarithmic form of the Hill equation using the Delta Graph (Pro4) computer program.

[2] = Chemical stability of inhibitor on incubation in buffer before inactivation test; format: physicochemical; details: 1 mM, room temperature, 20 mM KH2PO4 pH 7.5, 1 mM ThDP, 5 mM MgCl2, up to 28 min
Description: Kinetics of inactivation of 1-lip and 3-lip PDH complexes and resolved E1 in the presence of 2-oxo-3-alkynoic acids. Three analogs of pyruvate were tested as potential inhibitors of the PDHc and resolved E1: 2-oxo-3-butynoic acid; 2-oxo-3-pentynoic acid; and 2-oxo-3-heptynoic acid. Incubation in the presence of saturating ThDP (1 mM) and MgCl2 (5 mM) with any of the three compounds led to the loss of overall activity in a time- and concentration-dependent fashion. The plots of remaining activity versus time were biphasic: a rapid phase of inactivation was followed either by a slow phase at high concentrations of inhibitor or a plateau at low concentrations of inhibitor, as shown for 1-lip PDHc and resolved E1 with 2-oxo-3-butynoic acid in FIGS. 1A and 1B. The biphasic kinetics may be due to chemical instability of the inhibitors, especially 2-oxo-3-butynoic acid. […] When a fresh portion of 2-oxo-3-butynoicacid was added to PDHc whose activity had plateaued at about 30%, the activity rapidly declined to a new plateau at 6-8% of the original activity. In contrast, the PDHc activity continued to decline at a low rate when fresh 1-lip PDHc was added to the sample that had already declined to 30% (data not shown).

resolved E1 = molecular target: T2, resolved E1 (Escherichia coli, UniProt P0AFG8); assay: Inactivation of resolved E1 component (activity after reconstitution with E2-E3 subcomplex); format: biochemical, E. coli; details: for remaining activity at 3700 µM: 3.7 mM inhibitor; for remaining activity at 500 µM: 15 min, read-out: residual activity of E1; for residual activity of E1: conditions as for fluorescence analysis
T2 construct: made in house; host or cells: resolved from PDHc expressed in E. coli JRG1342
Description: Resolution of the E1 component from PDHc. […] PDHc was dialyzed against 50 mM Tris buffer, pH 9.0, containing 0.1 mM benzamidine.HCl, 0.15 M NaCl, 0.1 mM PMSF for 2 h, before applying to a column equilibrated and eluted with the same buffer.
as §1
(§2) One unit of activity is defined as the amount of NADH produced (μmol) per min per mg protein. The activity of resolved E1 was measured after reconstitution with excess E2-E3 subcomplex using the NADH assay for PDHc activity.
(§3) Inactivation of 1-lip and 3-lip PDH complexes and resolved E1 component by 2-oxo-3-alkynoic acids. Intact 1-lip or 3-lip PDH complexes (0.050-0.1 mg) or resolved E1 component (0.05-0.09 mg) were incubated in the dark with 5 mM MgCl2, […] of 2-oxo-3-alkynoic acids in 20 mM KH2 PO4 buffer, pH 7.5 at room temperature in a total volume 0.5 mL. The initial activity (100%) was assayed prior to the addition of 2-oxo-3-alkynoic acids. Samples (50 μL) were withdrawn periodically and diluted into 1 mL of assay solution, containing all components necessary for assay of the overall activity. The activity of untreated enzyme was stable during the time of inactivation.

PDHc [3] = molecular target: T1, PDHc; assay: Inactivation of 1-lip and 3-lip PDH complexes by 2-oxo-3-alkynoic acids (overall NADH assay); format: biochemical, E. coli; parameters: made in house; host or cells: E. coli JRG1342 (PDHc null) with Ptac plasmid pGS501 (1-lip) or pGS523 (3-lip); details: for protection of PDHc from inactivation by pyruvate: 5 mM pyruvate, 1 mM ThDP, 5 mM MgCl2; for protection of PDHc from inactivation by pyruvate / inactivation of PDHc in the absence of ThDP: 3-lip (heptynoic) or 1-lip (butynoic) PDHc; for kapp, slow phase of inactivation / At (residual activity): 1-lip PDHc
From the text: Bacterial strains and plasmids for PDHc. Derivatives of the PDHc null strain, E. coli JRG1342 contained Ptac expression plasmids encoding PDHc with E2 chains bearing three lipoyl domains (3-lip PDHc; pGS523, the wild type parental complex), or a single lipoyl domain in each E2 subunit (1-lip PDHc; pGS501), and variant 1-lip PDH complexes with mutations in the E1 gene leading to C259S (pGS457) and C259N (pGS596) substitutions (Machado et al., 1992; Machado, 1993).
Purification of PDHc. Cultures for purification of 1-lip and 3-lip PDH complexes were grown at 37° C. in LB medium containing glucose (0.2%) and ampicillin (50 μg/mL). The PDH complexes were induced by adding IPTG to 60 μM as described by Russell et al. (1992). Cells were disrupted by ultrasonic treatment after preincubation with lysozyme (0.6 mg/mL final concentration) for 15 min. The PDHc was sedimented by ultracentrifugation (100,000×g for 3 h) and further purified by chromatography on a
Sephacryl S-400 HR column. Fractions containing PDHc were pooled and treated with ammonium sulfate to 70% saturation. The enzyme was dissolved in buffer A (20 mM potassium phosphate, pH 7.8, 2 mM Na2 EDTA, 1 mM PMSF, and 1 mM benzamidine.HCl) then dialyzed against the same buffer. The PDH complexes were stored in buffer A at -20° C.
as §1, §2, §3

SMILES: C#CC(=O)C(=O)O [2-oxo-3-butynoic acid, 2-Oxo-3-butynoic acid]
- [S]0.5 for pyruvate in the presence of / after treatment with inhibitor (PDHc [1]): 0.262 ± 0.069 mM
- effect of incubating the inhibitor in buffer on its ability to inactivate 1-lip PDHc [2]: no significant effect
- residual activity of E1 used for SH titration (resolved E1): 10%
- k for inactivation of E1 (resolved E1; 0.11 mM inhibitor): 1.73 min⁻¹
- inhibition at 500 µM (resolved E1; 0.5 mM inhibitor, 20 min, 1 mM ThDP, 5 mM MgCl2): ~68%
- remaining activity at 3700 µM (resolved E1; after G-25 chromatography, read-out: residual activity of resolved E1 in the overall reaction (At)): 11.5%
- At after addition of DTT to previously inactivated E1 (resolved E1; 5 mM DTT added at At = 30%, after 60 min): 40%
- protection of E1 component from modification by pyruvate (resolved E1; 5 mM pyruvate, 1 mM ThDP, 5 mM MgCl2): completely protected
- reactivation of inactivated E1 by hydroxylamine (resolved E1; 0.2, 0.5 and 1 M hydroxylamine, neutral pH, 100 min or 15 h): failed to restore activity; also recorded: failure to reactivate
- remaining activity at 500 µM (resolved E1; 0.5 mM inhibitor, absence of DTT): ~30%
- remaining activity at 500 µM (resolved E1; 0.5 mM inhibitor, presence of 5 mM DTT): 63%
- remaining activity at 3700 µM (resolved E1; E1 1.5 mg/mL, 0.1 mM ThDP, 1 mM MgCl2, read-out: E1 activity remaining before chromatography): 16%
- Pyruvate:NAD+-oxidoreductase reaction (resolved E1; E1 treated with 3.7 mM inhibitor, At = 11.5%, after G-25): 0.343 ± 0.023 μmol/min/mg protein
- residual activity of E1 (resolved E1; absence of added ThDP): 78-90%
- residual activity of E1 (resolved E1; presence of ThDP): 40%
- Ki (resolved E1; dissociation constant for initial reversible complex): 8.5 µM
- kinact (resolved E1; rate constant at saturating inhibitor, resolved E1, read-out: ki E1 (converted)): 0.0298 s⁻¹
- kinact/KI (resolved E1; read-out: ki/Ki E1): 3500 M⁻¹ s⁻¹
- kapp, slow phase of inactivation (resolved E1; resolved E1, 0.11 mM inhibitor): 0.039 min⁻¹
- kapp, slow phase of inactivation (resolved E1; resolved E1, 1.1 mM inhibitor): 0.078 min⁻¹
- Ki (PDHc [3]): 7.9 µM
- inhibition / inactivation of PDHc (in words) (PDHc [3]): irreversibly inactivates
- k for inactivation of PDHc (PDHc [3]; 0.11 mM inhibitor): 0.69 min⁻¹
- protection of PDHc from inactivation by pyruvate (PDHc [3]): partially protected
- kapp, slow phase of inactivation (PDHc [3]; 0.1 mM inhibitor): 0.062 min⁻¹
- kapp, slow phase of inactivation (PDHc [3]; 0.5 mM inhibitor): 0.053 min⁻¹
- kapp, slow phase of inactivation (PDHc [3]; 1.0 mM inhibitor): 0.056 min⁻¹
- At (residual activity) (PDHc [3]; absence of pyruvate): 20%
- At (residual activity) (PDHc [3]; presence of 5 mM pyruvate): 60%
- inactivation of PDHc in the absence of ThDP (PDHc [3]): partial inactivation
- extent of inactivation (PDHc [3]; 3-lip PDHc): 99.62%
- restoration of activity after dilution (PDHc [3]; 3-lip PDHc, 20-fold dilution, 50 min incubation in overall reaction mixture): no restoration of activity
- PDHc activity at new plateau, of original activity (PDHc [3]; after a fresh portion of inhibitor was added): 6-8%
- PDHc activity at plateau (PDHc [3]; first portion of inhibitor, residual activity): about 30%
- kinact/KI (PDHc [3]; pH 7.5, second-order rate constant for inactivation, read-out: ki/Ki PDHc (converted)): 1730 M⁻¹ s⁻¹
- Ki (PDHc [3]; read-out: Ki PDHc, PDHc (1-lip PDHc)): 7.9 µM

SMILES: CCCC#CC(=O)C(=O)O [2-oxo-3-heptynoic acid, 2-Oxo-3-heptynoic acid]
- [S]0.5 for pyruvate in the presence of / after treatment with inhibitor (PDHc [1]): 0.234 ± 0.025 mM
- Ki (PDHc [3]): 2850 µM
- protection of PDHc from inactivation by pyruvate (PDHc [3]): failed to protect
- inactivation of PDHc in the absence of ThDP (PDHc [3]): still inactivated to the same extent, but at a slower rate
- protection from inactivation by DTT (PDHc [3]; 3-lip PDHc, 5 mM DTT): partial protection
- kinact/KI (PDHc [3]; pH 7.5, read-out: ki/Ki PDHc): 2.83 M⁻¹ s⁻¹
- reactivation of inactivated 3-lip PDHc by hydroxylamine (PDHc [3]; prolonged incubation): failure to reactivate
